Experimental data reported in PMC10528299, “Targeting FAK/PYK2 with SJP1602 for Anti-Tumor Activity in Triple-Negative Breast Cancer” (Current Issues in Molecular Biology, 2023).

Experiments:
Test in all cases: Eurofins kinase profiling
Format in all cases: biochemical
BRK(h) = biological target: T1, BRK(h) (Homo sapiens, UniProt Q13882); conditions: read-out: residual kinase activity BRK(h)
T1 construct: purchased Eurofins KinaseProfiler
Method in brief: (§1)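 At a fixed 1 µM, the compound was profiled against each kinase, whose activity was quantified through radiolabeled phosphate incorporation.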

KDR(h) = biological target: T2, KDR(h) (Homo sapiens, UniProt P35968); conditions: read-out: residual kinase activity KDR(h)
T2 construct: purchased Eurofins KinaseProfiler
Method in brief: as §1

Axl(h) = biological target: T3, Axl(h) (Homo sapiens, UniProt P30530); conditions: read-out: residual kinase activity Axl(h)
T3 construct: purchased Eurofins KinaseProfiler
T3 sequence (P30530 26-894): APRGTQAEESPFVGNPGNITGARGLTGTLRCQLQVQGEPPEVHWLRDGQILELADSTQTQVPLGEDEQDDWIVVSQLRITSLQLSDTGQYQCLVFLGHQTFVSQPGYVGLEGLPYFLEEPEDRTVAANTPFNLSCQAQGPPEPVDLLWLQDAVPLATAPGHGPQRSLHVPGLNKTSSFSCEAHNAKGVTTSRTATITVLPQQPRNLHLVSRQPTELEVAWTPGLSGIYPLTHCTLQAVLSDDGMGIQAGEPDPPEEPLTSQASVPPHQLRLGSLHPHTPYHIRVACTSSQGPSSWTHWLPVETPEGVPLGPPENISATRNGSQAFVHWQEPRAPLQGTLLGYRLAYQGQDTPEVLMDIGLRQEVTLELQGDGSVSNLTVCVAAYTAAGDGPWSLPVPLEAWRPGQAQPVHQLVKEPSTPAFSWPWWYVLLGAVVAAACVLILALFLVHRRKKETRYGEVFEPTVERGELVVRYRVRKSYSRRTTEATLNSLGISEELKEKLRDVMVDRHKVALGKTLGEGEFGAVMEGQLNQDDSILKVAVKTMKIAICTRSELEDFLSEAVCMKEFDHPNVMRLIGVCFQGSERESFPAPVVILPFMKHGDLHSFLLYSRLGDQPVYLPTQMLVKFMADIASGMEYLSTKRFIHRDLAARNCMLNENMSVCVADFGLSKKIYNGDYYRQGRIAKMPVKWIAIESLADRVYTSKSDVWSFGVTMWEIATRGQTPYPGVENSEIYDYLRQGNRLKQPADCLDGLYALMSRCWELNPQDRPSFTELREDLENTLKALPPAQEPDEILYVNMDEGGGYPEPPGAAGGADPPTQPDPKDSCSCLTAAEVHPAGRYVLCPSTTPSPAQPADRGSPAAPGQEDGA
Method in brief: as §1

PDK1(h) = biological target: T4, PDK1(h) (Homo sapiens, UniProt O15530); conditions: read-out: residual kinase activity PDK1(h)
T4 construct: purchased Eurofins KinaseProfiler
T4 sequence (O15530 1-556): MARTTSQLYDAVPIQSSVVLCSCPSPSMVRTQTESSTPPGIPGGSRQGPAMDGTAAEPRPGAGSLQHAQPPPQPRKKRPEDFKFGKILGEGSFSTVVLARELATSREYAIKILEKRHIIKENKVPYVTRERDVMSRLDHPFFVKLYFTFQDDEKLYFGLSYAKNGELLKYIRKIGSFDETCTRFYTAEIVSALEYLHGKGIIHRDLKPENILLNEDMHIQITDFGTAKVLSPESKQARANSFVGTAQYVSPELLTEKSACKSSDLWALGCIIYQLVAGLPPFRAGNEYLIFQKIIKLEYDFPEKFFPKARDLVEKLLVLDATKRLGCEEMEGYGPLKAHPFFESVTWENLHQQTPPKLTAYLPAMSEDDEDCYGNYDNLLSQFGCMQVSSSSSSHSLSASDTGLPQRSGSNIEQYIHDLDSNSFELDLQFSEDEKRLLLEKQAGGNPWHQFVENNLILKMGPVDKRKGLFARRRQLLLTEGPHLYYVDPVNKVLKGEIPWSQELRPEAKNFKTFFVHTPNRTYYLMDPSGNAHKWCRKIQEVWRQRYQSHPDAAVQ
Method in brief: as §1

MAPK2(h) = biological target: T5, MAPK2(h) (Homo sapiens, UniProt P28482); conditions: read-out: residual kinase activity MAPK2(h)
T5 construct: purchased Eurofins KinaseProfiler
Method in brief: as §1

IGF-1R(h), activated = biological target: T6, IGF-1R(h), activated (Homo sapiens, UniProt P08069); conditions: 1 µM
T6 construct: purchased Eurofins KinaseProfiler
Method in brief: as §1

CK1γ1(h) = biological target: T7, CK1γ1(h) (Homo sapiens, UniProt Q9HCP0); conditions: read-out: residual kinase activity CK1γ1(h)
T7 construct: purchased Eurofins KinaseProfiler
Method in brief: as §1

EphA2(h) = biological target: T8, EphA2(h) (Homo sapiens, UniProt P29317); conditions: read-out: residual kinase activity EphA2(h)
T8 construct: purchased Eurofins KinaseProfiler
Method in brief: as §1

DCAMKL3(h) = biological target: T9, DCAMKL3(h) (Homo sapiens, UniProt Q9C098); conditions: read-out: residual kinase activity DCAMKL3(h)
T9 construct: purchased Eurofins KinaseProfiler
T9 sequence (Q9C098 1-648): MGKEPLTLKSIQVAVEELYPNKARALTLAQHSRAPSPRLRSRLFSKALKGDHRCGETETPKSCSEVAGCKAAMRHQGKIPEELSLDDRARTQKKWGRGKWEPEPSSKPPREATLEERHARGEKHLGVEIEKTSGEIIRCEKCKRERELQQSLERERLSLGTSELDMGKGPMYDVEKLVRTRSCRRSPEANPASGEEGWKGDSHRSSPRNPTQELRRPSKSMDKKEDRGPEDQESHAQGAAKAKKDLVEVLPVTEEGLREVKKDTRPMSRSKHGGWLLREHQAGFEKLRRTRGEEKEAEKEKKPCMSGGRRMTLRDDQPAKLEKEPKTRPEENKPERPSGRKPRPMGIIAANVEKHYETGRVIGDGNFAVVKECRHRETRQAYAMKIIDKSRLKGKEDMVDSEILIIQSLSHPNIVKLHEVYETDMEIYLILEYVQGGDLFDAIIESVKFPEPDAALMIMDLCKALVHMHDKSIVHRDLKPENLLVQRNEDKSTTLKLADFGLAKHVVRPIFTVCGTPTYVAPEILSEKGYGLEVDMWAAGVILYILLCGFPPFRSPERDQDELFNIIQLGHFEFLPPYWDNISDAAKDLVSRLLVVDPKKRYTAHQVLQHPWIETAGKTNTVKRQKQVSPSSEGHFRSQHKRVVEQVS
Method in brief: as §1

PKCα(h) = biological target: T10, PKCα(h) (Homo sapiens, UniProt P17252); conditions: read-out: residual kinase activity PKCα(h)
T10 construct: purchased Eurofins KinaseProfiler
Method in brief: as §1

T7 sequence (Q9HCP0 whole entry): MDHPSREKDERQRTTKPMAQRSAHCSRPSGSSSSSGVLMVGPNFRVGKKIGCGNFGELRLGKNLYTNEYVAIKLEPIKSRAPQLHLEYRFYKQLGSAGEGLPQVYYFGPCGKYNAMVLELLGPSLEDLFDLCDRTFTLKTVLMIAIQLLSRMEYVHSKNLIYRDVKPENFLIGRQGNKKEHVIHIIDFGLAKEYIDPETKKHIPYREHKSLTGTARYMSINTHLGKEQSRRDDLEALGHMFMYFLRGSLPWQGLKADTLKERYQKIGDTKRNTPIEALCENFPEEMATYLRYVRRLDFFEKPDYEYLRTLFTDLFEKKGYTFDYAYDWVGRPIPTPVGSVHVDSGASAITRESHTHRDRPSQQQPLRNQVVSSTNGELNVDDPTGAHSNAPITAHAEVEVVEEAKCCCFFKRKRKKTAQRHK
T5 sequence (P28482 whole entry): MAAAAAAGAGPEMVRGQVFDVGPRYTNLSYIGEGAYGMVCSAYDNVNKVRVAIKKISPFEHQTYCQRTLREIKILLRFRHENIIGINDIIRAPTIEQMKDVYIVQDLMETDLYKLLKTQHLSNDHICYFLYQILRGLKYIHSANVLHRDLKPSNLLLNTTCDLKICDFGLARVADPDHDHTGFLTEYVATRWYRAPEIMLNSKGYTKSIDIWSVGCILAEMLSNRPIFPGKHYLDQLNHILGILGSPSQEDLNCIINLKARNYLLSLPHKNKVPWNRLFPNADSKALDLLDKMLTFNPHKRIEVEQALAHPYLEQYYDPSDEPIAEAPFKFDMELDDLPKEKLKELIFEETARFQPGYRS
T2 sequence (P35968 20-1356): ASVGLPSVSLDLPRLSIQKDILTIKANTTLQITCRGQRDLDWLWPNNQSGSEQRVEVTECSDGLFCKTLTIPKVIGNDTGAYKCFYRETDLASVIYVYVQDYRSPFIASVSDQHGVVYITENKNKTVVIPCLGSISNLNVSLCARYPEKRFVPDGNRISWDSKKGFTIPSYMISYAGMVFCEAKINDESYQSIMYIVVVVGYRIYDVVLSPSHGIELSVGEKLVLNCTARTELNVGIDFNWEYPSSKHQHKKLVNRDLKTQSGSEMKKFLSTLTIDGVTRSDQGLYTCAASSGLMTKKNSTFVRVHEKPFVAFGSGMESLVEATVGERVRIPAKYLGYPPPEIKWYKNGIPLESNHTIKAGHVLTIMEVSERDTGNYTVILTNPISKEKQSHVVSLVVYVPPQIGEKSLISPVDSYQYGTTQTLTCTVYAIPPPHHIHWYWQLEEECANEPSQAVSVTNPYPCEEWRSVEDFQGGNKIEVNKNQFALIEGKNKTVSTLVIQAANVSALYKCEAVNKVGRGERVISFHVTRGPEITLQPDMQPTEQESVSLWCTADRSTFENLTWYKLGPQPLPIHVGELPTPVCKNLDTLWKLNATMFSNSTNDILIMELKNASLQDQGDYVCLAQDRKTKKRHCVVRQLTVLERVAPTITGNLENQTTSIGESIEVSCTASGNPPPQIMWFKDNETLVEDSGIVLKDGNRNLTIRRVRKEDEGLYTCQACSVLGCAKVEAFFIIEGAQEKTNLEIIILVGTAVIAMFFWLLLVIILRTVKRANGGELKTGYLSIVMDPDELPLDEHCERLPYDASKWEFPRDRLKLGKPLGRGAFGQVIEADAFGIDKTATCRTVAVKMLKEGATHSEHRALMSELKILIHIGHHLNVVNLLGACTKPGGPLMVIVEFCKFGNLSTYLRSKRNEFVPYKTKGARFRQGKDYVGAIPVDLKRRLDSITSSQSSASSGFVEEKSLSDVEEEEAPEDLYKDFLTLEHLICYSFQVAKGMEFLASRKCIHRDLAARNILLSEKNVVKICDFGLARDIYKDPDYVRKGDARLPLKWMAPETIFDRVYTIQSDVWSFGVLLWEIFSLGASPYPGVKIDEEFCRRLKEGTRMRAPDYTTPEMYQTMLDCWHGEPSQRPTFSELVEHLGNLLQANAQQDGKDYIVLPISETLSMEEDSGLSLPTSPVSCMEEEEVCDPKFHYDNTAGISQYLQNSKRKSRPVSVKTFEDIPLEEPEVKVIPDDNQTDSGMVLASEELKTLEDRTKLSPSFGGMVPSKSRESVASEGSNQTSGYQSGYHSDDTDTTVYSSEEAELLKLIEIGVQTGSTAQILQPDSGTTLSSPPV
T8 sequence (P29317 24-976): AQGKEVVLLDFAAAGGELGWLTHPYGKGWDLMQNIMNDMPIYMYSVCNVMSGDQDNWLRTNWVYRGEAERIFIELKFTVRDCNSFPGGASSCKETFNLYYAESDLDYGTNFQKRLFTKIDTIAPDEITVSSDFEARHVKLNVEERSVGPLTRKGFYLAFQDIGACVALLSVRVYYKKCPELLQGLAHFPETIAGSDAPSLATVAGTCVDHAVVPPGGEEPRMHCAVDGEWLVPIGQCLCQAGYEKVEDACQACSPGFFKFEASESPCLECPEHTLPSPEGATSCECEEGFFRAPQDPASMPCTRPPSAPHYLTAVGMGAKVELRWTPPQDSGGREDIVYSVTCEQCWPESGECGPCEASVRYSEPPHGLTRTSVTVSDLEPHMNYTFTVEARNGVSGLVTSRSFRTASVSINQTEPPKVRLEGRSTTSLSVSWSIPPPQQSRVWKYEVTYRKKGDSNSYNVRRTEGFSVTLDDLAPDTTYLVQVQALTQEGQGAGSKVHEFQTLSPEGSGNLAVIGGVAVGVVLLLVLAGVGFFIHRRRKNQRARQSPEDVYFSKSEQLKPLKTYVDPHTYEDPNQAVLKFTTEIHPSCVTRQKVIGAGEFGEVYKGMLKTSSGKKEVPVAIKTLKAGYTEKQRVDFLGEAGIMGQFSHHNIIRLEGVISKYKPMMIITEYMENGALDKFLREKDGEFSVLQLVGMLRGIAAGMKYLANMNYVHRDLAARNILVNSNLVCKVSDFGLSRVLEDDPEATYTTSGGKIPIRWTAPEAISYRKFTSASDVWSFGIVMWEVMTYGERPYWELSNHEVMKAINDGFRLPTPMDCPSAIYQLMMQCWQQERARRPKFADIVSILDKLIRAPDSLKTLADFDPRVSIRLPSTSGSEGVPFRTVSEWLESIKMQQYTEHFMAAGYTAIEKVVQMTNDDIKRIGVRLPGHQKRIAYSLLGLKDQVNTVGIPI
T1 sequence (Q13882 whole entry): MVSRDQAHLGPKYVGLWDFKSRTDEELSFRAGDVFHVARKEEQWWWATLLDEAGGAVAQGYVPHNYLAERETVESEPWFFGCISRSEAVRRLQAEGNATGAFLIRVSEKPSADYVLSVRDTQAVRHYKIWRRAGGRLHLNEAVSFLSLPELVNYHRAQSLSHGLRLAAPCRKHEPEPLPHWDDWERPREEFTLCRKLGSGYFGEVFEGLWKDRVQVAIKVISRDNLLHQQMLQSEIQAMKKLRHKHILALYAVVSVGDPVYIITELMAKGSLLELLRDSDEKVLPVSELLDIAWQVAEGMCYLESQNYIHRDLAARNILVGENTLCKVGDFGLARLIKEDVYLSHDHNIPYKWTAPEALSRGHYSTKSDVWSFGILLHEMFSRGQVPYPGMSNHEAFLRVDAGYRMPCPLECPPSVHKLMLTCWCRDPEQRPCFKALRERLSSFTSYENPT

remaining activity at 1 µM (BRK(h))	remaining activity at 1 µM (KDR(h))	remaining activity at 1 µM (Axl(h))	remaining activity at 1 µM (PDK1(h))	remaining activity at 1 µM (MAPK2(h))	residual kinase activity IGF-1R(h), activated (IGF-1R(h), activated)	remaining activity at 1 µM (CK1γ1(h))	remaining activity at 1 µM (EphA2(h))	remaining activity at 1 µM (DCAMKL3(h))	remaining activity at 1 µM (PKCα(h))	SMILES
67%	88%	84%	117%	94%	108	99%	92%	98%	95%	CONC(=O)c1ccccc1Nc1cc(Nc2cc(C)nn2C(C)C)ncc1Cl [GSK2256098]
91%	28%	57%	66%	87%	74	81%	91%	42%	92%	CNC(=O)c1ccc(Nc2ncc(C(F)(F)F)c(NCc3nccnc3N(C)S(C)(=O)=O)n2)cc1 [VS-6063, Defactinib]

SMILES	remaining activity at 1 µM (BRK(h))	remaining activity at 1 µM (KDR(h))	remaining activity at 1 µM (Axl(h))	remaining activity at 1 µM (PDK1(h))	remaining activity at 1 µM (MAPK2(h))	residual kinase activity IGF-1R(h), activated (IGF-1R(h), activated)	remaining activity at 1 µM (CK1γ1(h))	remaining activity at 1 µM (EphA2(h))	remaining activity at 1 µM (DCAMKL3(h))	remaining activity at 1 µM (PKCα(h))
CNC(=O)c1cccc(C)c1Nc1nc(Nc2ccc(N3CCN(C4C5CC6CC4CC(O)(C6)C5)CC3)cc2OC)ncc1C(F)(F)F (stereo not drawn) [SJP1602, 2-((2-((4-(4-((2s,5r)-5-hydroxyadamantan-2-yl)piperazin-1-yl)-2-methoxyphenyl)amino)-5-(trifluoromethyl)pyrimidin-4-yl)amino)-N,3-dimethylbenzamide]	109%	101%	105%	102%	95%	105	105%	105%	98%	100%
